From US11987568B2, “Allosteric inhibitor of WEE1 kinase” (H. LEE MOFFITT CANCER CENTER AND RESEARCH INSTITUTE, INC., priority 2018, dated 2024) come the findings set out here.

Assay [1] relates to histone H2B Tyr37-phopshorylation (pY37-H2B). Briefly: WEE1 epigenetic activity in cells: pY37-H2B immunoprecipitation/immunoblot. The assay is classed as cell-based, human. The source says:
FIGS. 2A-2B show identification of 3 distinct types of inhibitors. […] In addition, the lysates were also subjected to by immunoblotting with pY15-Cdc2 or actin antibodies (middle and bottom panels). […] The number vehicle treated cells were used as control and percent of surviving cells were plotted.
FIGS. 4A-4B show structures of ‘hits’ identified in WEE1 epigenetic inhibitor screen. […] The reaction mix was then subjected to immunoprecipitated with WEE1 antibodies, followed by immunoblotting with pTyr antibodies. […] In addition, the lysates were also subjected to immunoblotting with actin antibodies (bottom panel).
FIGS. 7A-7C show identification of WEIN-159 as a potent WEE1 epigenetic inhibitor. […] In addition, lysates were immunoprecipitated with pY37-H2B antibodies, followed by immunoblotting with H2B antibodies (middle panel). […] The lysates were also subjected to immunoblotting with pY15-Cdc2 antibodies and were immunoprecipitated with pY37-H2B antibodies, followed by immunoblotting with H2B antibodies (middle panels). In addition, the lysates were also subjected to immunoblotting with H2B antibodies (bottom panel). […] The lysates were also subjected to immunoblotting with pY15-Cdc2 antibodies and were immunoprecipitated with pY37-H2B antibodies, followed by immunoblotting with H2B antibodies (middle panels). In addition, the lysates were also subjected to immunoblotting with actin antibodies (bottom panel).
Identification of compounds with WEE1 epigenetic inhibitory role: 14 ‘hits’ that were identified in the screen are shown in FIG. 1. These compounds were further tested for their ability to inhibit WEE1 epigenetic activity. Prostate cancer derived LNCaP cells were treated with 3 uM of compounds for 48 hours. Cells were harvested, lysates were prepared, and WEE1 epigenetic activity was detected by determining histone H2B Tyr37-phopshorylation (pY37-H2B). Lysates were also assessed for WEE1 cell cycle inhibitory activity by determining Cdc2 Tyr15-phosphorylation (pY15-Cdc2). […] These are named as ‘Cell Cycle’ inhibitors. […] These compounds are the ‘Epigenetic’ inhibitors.
In general terms: In western blotting, separated proteins are transferred to a membrane and probed.

Assay [2] relates to Cdc2 Tyr15-phosphorylation (pY15-Cdc2). Briefly: WEE1 cell cycle inhibitory activity in cells: pY15-Cdc2 immunoblot. The assay is classed as cell-based, human. The text has this: FIGS. 2A-2B show identification of 3 distinct types of inhibitors. […] In addition, the lysates were also subjected to by immunoblotting with […]-Cdc2 or actin antibodies (middle and bottom panels). […] The number vehicle treated cells were used as control and percent of surviving cells were plotted. […] In addition, the lysates were also subjected to immunoblotting with actin antibodies (bottom panel). Identification of compounds with WEE1 epigenetic inhibitory role: 14 'hits' that were identified in the screen are shown in FIG. 1. These compounds were further tested for their ability to inhibit WEE1 epigenetic activity. Prostate cancer derived LNCaP cells were treated with 3 uM of compounds for 48 hours. […] Lysates were also assessed for WEE1 cell cycle inhibitory activity by determining Cdc2 Tyr15-phosphorylation ([…]-Cdc2). […] These are named as 'Cell Cycle' inhibitors. […] These compounds are the 'Epigenetic' inhibitors.

Assay [3] has as its system WEE1. Briefly: Endogenous WEE1 auto-phosphorylation in cells (WEE1 IP, pTyr immunoblot). To be noted: LNCaP and melanoma cell line B16, 10 μM, 24 hours (FIGS. 7B and C). The class given is cell-based, human. How it is done:
The reaction mix was then subjected to immunoprecipitated with WEE1 antibodies, followed by immunoblotting with pTyr antibodies (top panel). As a control, purified ACK1 protein was incubated in the reaction buffer containing ATP, in presence of 100 nM epigenetic inhibitors. The reaction mix was then subjected to immunoprecipitated with ACK1 antibodies, followed by immunoblotting with pTyr antibodies (bottom panel). […] In addition, the lysates were also subjected to immunoblotting with actin antibodies (bottom panel). […] In addition, the lysates were also subjected to immunoblotting with actin antibodies (bottom panel). […] In addition, the lysates were also subjected to immunoblotting with actin antibodies (bottom panel). To determine direct binding of these compounds causing WEE1 inhibition, a full length WEE1 kinase protein was incubated with the compounds. […] These inhibitors were further validated by assessing their ability to suppress endogenous WEEE activity; LNCaP cells were treated with 10 μM of these compounds overnight.

For assay [4], the target named is WEE1 (Homo sapiens, UniProt P30291). Briefly: Pull-down assay with biotinylated inhibitor on streptavidin beads. The class given is binding. To be noted: LNCaP cell lysates, WEE1 immunoblot (FIG. 11A). How it is done: (§1) FIGS. 11A-11E show direct interaction between inhibitor and WEE1 kinase. […] FIGS. 11C-11E show biotinylated WEIN-159 and WEIN-172 immobilized onto streptavidin beads were incubated with lysates prepared from HEK293T cells transfected with MYC-tagged WEE1 deletion constructs, followed by immunoblotting with MYC antibodies.
(§2) Inhibitory activity of WEIN-159 and WEIN-172 was further validated by examining its direct-binding to WEE1 protein, using a pull-down assay. WEIN-159 and WEIN-172 were attached to biotin molecule (FIG. 10) and then immobilized onto streptavidin beads. Beads were incubated with cell lysate, washed and electrophoresed followed by immunoblottng with WEE1 antibodies.
(§3) To further identify region within WEE1 that may be involved in binding to inhibitor, a deletion strategy was employed wherein three deletions, A-WEE1, B-WEE1 and C-Wee1 were generated which were Myc-tagged (FIG. 11B). Constructs were transfected in HEK293T cells and lysates were incubated with biotin beads with bound WEIN-159 and 172.

The subject of the next assay is WEE1 protein. The assay is described as above. The class given is binding. To be noted: lysates of transfected HEK293T cells (FIGS. 11C and D). How it is done: as §1, §2, §3
Another assay relates to LNCaP cells. Briefly: Cell cycle analysis by propidium iodide staining. To be noted: 16 hours. The assay is classed as cell-based, human. The procedure: To further validate this observation, LNCaP cells were treated with WEIN-159 and 172 for 16 hours and cell cycle analysis was performed by propidium iodide staining.
Assay [5] relates to global histone H3K18, H3K12 and H3K9 and H4K5 acetylation. Briefly: Global histone acetylation after treatment. The class given is cell-based. The text has this: FIGS. 15A-15B show restoration of H3K18 epigenetic marks by epigenetic inhibitor of WEE1 kinase.
FIGS. 16A-16D show restoration of H4K5 and H3K12 epigenetic marks by epigenetic inhibitor of WEE1 kinase.
Global upregulation of histone H3K18 and H3K12 acetylation upon WEIN-159 treatment: To further examine the effect of WEE1 inhibition, global histone H3K18, H3K12 and H3K9 and H4K5 acetylation was examined following WEIN-159 and WEIN-172 treatment. […] In contrast, H3K9 acetylation levels were not affected.

A further assay deals with global histone levels. Briefly: Global histone expression, qRT-PCR. The class given is cell-based, human. To be noted: LNCaP 5 or 10 uM 16 hr; LAPC4 3.5 uM 48 hr. The text has this:
FIGS. 8A-8B show inhibition of WEE1 epigenetic activity lead to increased global histone expression. […] Total RNA was isolated followed by qRT-PCR with histone H3 and actin primers. […] Total RNA was isolated followed by qRT-PCR with histone H3 and actin primers.
WEIN-159 and WEIN-172 were further assessed by treatment of LNCaP and melanoma cell line B16, followed by determination of WEE1, H2B and Cdc Tyr-phopshorylation.
For orientation: Real-time PCR tracks product formation cycle by cycle.

Assay [6] deals with full length human WEE1 kinase (Homo sapiens, UniProt P30291). Briefly: ELISA based assay: WEE1 phosphorylation of biotinylated H2B peptide spanning Tyr37. The assay is classed as biochemical. Further details: A full length human WEE1 kinase that was enzymatically active was purified from insect cell; ELISA assay % Inhibition: concentration or dose not given beside the values. The note with it: Table 3; No peptide = 100, No inhibitor = 0. The text has this: Designing of a Novel inhibitor Screening Platform: […] A full length human WEE1 kinase that was enzymatically active was purified from insect cell. […] NCI diversity set compound library ( 1600 compounds) was used for the screening.
(In general: ELISA stands for enzyme-linked immunosorbent assay.)

Where [7] appears, read: LNCaP and melanoma cell line B16, 10 μM, 24 hours (FIGS. 7B and C).
Where [8] appears, read: LNCaP cells, 10 μM, 24 hours (FIG. 7A).

full length human WEE1 kinase, sequence (P30291 whole entry): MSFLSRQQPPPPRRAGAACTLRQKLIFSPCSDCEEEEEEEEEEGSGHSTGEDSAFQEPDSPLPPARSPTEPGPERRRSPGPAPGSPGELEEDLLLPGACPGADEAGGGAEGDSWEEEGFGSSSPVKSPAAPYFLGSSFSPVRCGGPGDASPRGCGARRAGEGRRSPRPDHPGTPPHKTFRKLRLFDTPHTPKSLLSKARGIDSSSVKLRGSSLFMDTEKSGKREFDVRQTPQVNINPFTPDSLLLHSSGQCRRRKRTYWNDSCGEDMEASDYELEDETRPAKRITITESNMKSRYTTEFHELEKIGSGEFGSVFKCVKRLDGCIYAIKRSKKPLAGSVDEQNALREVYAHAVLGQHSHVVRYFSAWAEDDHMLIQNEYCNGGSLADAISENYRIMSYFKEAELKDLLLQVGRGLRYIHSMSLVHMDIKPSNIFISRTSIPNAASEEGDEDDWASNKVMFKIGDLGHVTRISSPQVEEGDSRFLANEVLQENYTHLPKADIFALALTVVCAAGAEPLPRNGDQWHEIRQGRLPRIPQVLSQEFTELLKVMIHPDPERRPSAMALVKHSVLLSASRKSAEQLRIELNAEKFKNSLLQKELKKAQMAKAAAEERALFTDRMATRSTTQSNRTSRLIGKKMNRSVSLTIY
WEE1 (Homo sapiens, UniProt P30291), sequence (P30291 whole entry): as above

With `Cl.Nc1cccc(NC(=O)c2ccc(C(=O)Nc3cccc(N)c3)s2)c1` [WEIN-172], in assay [1] (setting [7]), the “H2B Tyr-phopshorylation” value was “significant loss of WEE1 and H2B Tyr-phopshorylation”. In addition, the “H2B Tyr37-phopshorylation” value in [1] (setting [8]) is recorded as “almost complete loss of H2B Tyr37-phopshorylation”. In addition, the “Cdc Tyr15-phopshorylation” value in [2] (setting [7]) was “remained unaffected”. In assay [2] (setting [8]), the “Cdc Tyr-phopshorylation” value is recorded as “unaffected”. In addition, in the assay on WEE1 [3], the “WEE1 Tyr-phopshorylation” value was “significant loss of WEE1 and H2B Tyr-phopshorylation”. The “binding of WEE1 protein to biotinylated inhibitor on streptavidin beads” value at WEE1 [4] was “to lesser extent”. Moreover, the “binding to MYC-tagged WEE1 deletion constructs” value with WEE1 protein is recorded as “only full length WEE1 interacted with inhibitor”. Moreover, in the assay on LNCaP cells, the “Cell Cycle Analysis G1” value is 56.53, the “Cell Cycle Analysis G2/M” value is 16.29 and the “Cell Cycle Analysis S” value is 27.18. For the same compound, the H3K9 acetylation levels result in assay [5] is given as “not affected”. Also, in assay [5] (FIG. 15), the H3K18 acetylation result is on record as “significant increase in H3K18 acetylation”. Besides, in assay [5] (FIGS. 16 A and B), the H3K12 acetylation result was “significant increase”. Moreover, in [5] (FIGS. 16A and C), the H4K5 acetylation result is “significant increase”. Further, the “global histone levels (real time PCR of H3 and H2B)” value in the assay with global histone levels is listed as “significant increase in global histone levels”. Also, in [6], the “ELISA assay % Inhibition” value was determined as 112%.
